From patent US20240158448A1, “MULTIVALENT NANO-'SELF' PEPTIDES AND USES THEREOF” (THE TRUSTEES OF THE UNIVERSITY OF PENNSYLVANIA, priority 2021, published 2024)
“Also recorded” adds a separate entry of the source.

Experiments:
[1] = system: mouse bone marrow derived macrophages (BMDMs); assay: Phagocytosis of anti-TYRP1 opsonized B16F10 melanoma cells by mouse bone marrow derived macrophages; type: cell-based; details: 50 μM peptide
Procedure: B16F10 cells: Bone marrow cells were isolated from femurs and tibias of healthy C57BL6/J mice (The Jackson Laboratory) and cultured in 10-cm petri dishes containing IMDM (Gibco) supplemented with 10% v/v FBS, 1% v/v penicillin/streptomycin, and 1:10,000 macrophage colony stimulating factor cytokine (M-CSF; Biolegend) for 7 days at 37° C., 5% CO2 and 95% humidity. All animal experiments were performed according to protocols approved by the University of Pennsylvania's IACUC (protocol #805977 and #804455). The resulting mouse bone marrow derived macrophages (BMDMs) were washed with PBS containing Ca2^+/Mg2^+ (Gibco) then detached with 0.25% trypsin-EDTA (Gibco) and re-plated in 6-well tissue culture plates using IMDM+M-CSF for 24 hours.
Mouse melanoma B16F10 cells were washed with PBS containing Ca2-/Mg2- and then trypsinized with 0.05% trypsin-EDTA. After washing twice with PBS, the cells were labeled with 1:10,000 CFDA—SE (Thermo Fisher) in PBS for 10 minutes. B16F10 cells were opsonized with 10 μg/mL anti-TYRP1 (TA99; Bio X Cell) in PBS for 2 hours at 4° C.with occasional inverting. For CD47 blocked B16F10 cells, 5 μg/mL of […] were added. During the incubation time, the BMDMs were washed with media then stained with 1:2,000 CellTracker Deep Red (Thermo Fisher) in PBS with Ca2^+/Mg2^+ for 10 min. After washing, 50 μM of the nano—Self peptides were incubated with the BMDMs for 1 hour at 37° C., 5% CO2 and 95% humidity. Finally, BMDMs were washed twice with PBS and then twice with serum-free IMDM.
Without removing the supernatant, the opsonized melanoma cells were added to the labeled BMDMs at a ratio of 2:1 for 2 hours at 37° C., 5% CO2 and 95% humidity. During the last 15 minutes of the assay, the cells were Hoechst stained. The wells were washed with serum free IMDM then fixed with 4% formaldehyde for 15 minutes at RT, and PBS washed. Fluorescence imaging was performed using an Olympus IX71 with a digital EMCCD camera (Cascade 512B) and a 40×/0.6 NA objective. Quantification was done with ImageJ (NIH). At least 200 cells were analyzed and two-tailed student's t-test was used to determine statistical significance.

human THP-1 macrophages [2] = assay: In vitro phagocytosis assay: opsonized human RBCs engulfed by peptide-treated THP-1 macrophages; type: cell-based
Procedure: (§1) In vitro phagocytosis assay. Fresh human RBCs were washed twice with 50 mM EDTA (Thermo Fischer) in PBS (Gibco) then twice with 5% FBS in PBS. RBCs were opsonized with 20 μg/mL rabbit anti-human RBC antibody (Rockland) in 5% FBS for 1 hour at RT with shaking. For CD47 blocked RBCs, 5 μg/mL of mouse anti-human CD47 (B6H12; BD Biosciences) were added. Thereafter, RBCs were washed with PBS three times and stained with PKH26 dye (1:800 dilution in PBS; Sigma) for 1 hour at RT with shaking in the dark. RBCs were washed and resuspended in PBS.
(§2) THP-1 monocytes were PMA differentiated in RPMI for 48 hours. Macrophages were then washed with RPMI media three times. For SIRPα blocked THP-1 macrophages, 20 nM, 1 μM or 50 μM of the nano—Self peptides were incubated with the THP-1 macrophages for 1 hour at 37 ° C., 5% CO2 and 95% humidity. Those THP-Is were then washed with RPMI three times.
(§3) CO2 and 95% humidity. Macrophages were then washed with RPMI three times. Adherent and uninternalized RBCs were lysed with water for 30 seconds followed by immediate replacement with RPMI media. In order to distinguish remaining adherent RBCs from internalized RBCs, opsonized RBCs were stained with AlexaFluor 647 donkey anti-rabbit (binds to rabbit polyclonal opsonin on RBC; Invitrogen) IgG (1:1000) while unopsonized, CD47 blocked RBCs were stained with AlexaFluor 647 donkey anti-mouse (binds to mouse monoclonal anti-CD47 on RBCs; Invitrogen) IgG (1:1000) for 30 minutes. After washing, macrophages were fixed with 4% formaldehyde for 15 minutes at RT, washed with PBS, stained with 1 μg/mL Hoechst 33342, and then washed with PBS again. Fluorescence imaging was performed as described elsewhere herein and quantification was done using ImageJ. At least 200 cells were analyzed and experiments were repeated at least three times.

THP-1 macrophages = assay: Peptide inhibition assay (competition with FAM-labeled nS-F on THP-1 macrophages); type: binding, human; details: pre-treatment with unlabeled peptide
Procedure: Peptide inhibition assay. THP-1 monocytes were PMA differentiated in RPMI for 48 hours. […] To measure background internalization of the FAM-labeled peptides, nS-X-FAM was used. To determine the efficacy of the bivalent peptides to inhibit SIRPα binding, nS-X was used. Excess peptides were washed off with PBS and cells were fixed with 4% formaldehyde for 15 minutes at RT, washed with PBS, stained with 1 μg/mL Hoechst 33342, and then washed with PBS again. Fluorescence imaging was performed as described elsewhere herein and quantification was done using ImageJ.

[3] = system: human macrophages (opsonized K562 cancer cells); assay: Phagocytosis of opsonized K562 erythroleukemia cells by human macrophages; type: cell-based
Procedure: as §1, §2, §3
The anti-RBC successfully opsonized and triggered phagocytosis of K562 cells by macrophages (FIGS. 2A, 2F and 2E). […] Interaction of the nS peptides with K562 cells is likely minimal due to the relative lack of SIRPα expression. […] For both opsonized RBCs and opsonized K562s (FIGS. 2D, 2F), the hyperphagocytosis that is achieved with soluble F- and V-nS peptides matches the recently measured increases for disruption of both (i) the trans interactions between CD47 on a target and macrophage SIRPα and also, importantly, (ii) the cis interactions between CD47 and SIRPα on the same macrophage (FIG. 2G-left). Expression profiling of macrophages confirms these cells generally express CD47 at roughly similar levels to other cell types (FIG. 15). […] A preliminary conclusion is that nS-FF and the other substituted peptides, which were designed to bind SIRPα, inhibit both the cis and trans interactions between SIRPα and CD47 ([…]).

SIRPα = biological target: T1, SIRPα (Homo sapiens, UniProt P78324); assay: CD47-Fc Inhibition Assay on THP-1 macrophages; type: binding; details: 1 μM or 50 μM peptide, 2 μg/mL CD47-Fc, anti-Fc fluorescence
T1 construct: THP-1 monocytes were PMA differentiated in RPMI for 48 h; endogenous in cells; host or cells: PMA-differentiated THP-1 macrophages
Procedure: CD47-Fc Inhibition Assay. THP-1 monocytes were PMA differentiated in RPMI for 48 h. The macrophages were washed with RPMI media and then incubated with 1 μM or 50 μM of nano- Self peptides for 1 h at 37° C., 5% CO2, and 95% humidity. After washing, the macrophages were incubated with Human Trustain FcX Fc receptor blocking solution (Biolegend) for 10 min at RT and then incubated with 2 μg/mL CD47-Fc fusion protein (ACRO Biosystems) for 1 h at 37° C., 5% CO2, and 95% humidity. As a negative control, B6H12 was pre-mixed with CD47-Fc at 4° C. on a rotator for 1 h. The macrophages were then washed and incubated with 0.5 μg/mL goat anti-human IgG Fc DyLight 488 (Thermo Fischer) for 1 h at 37° C., 5% CO2, and 95% humidity. Finally, the macrophages were washed, fixed, Hoechst 33342 stained, and imaged as described above.
To determine whether the nS peptides bind to SIRPα, nS-FF and nS-F4 were used as soluble competitive inhibitors of saturable CD47-Fc fusion protein binding to macrophages (FIG. 20). Addition of multivalent nS peptides was followed by Fc-receptor blockade to minimize Fc-driven binding of construct. Afterwards, CD47-Fc was added and then finally anti-Fc fluorescence imaging was performed (FIG. 20, left).

human THP-1 macrophages [4] = assay: Residual adhesion of opsonized RBCs to macrophages; type: cell-based; details: 50 μM peptide
Text: To measure the residual adhesion of RBCs and distinguish it from internalization by macrophages, the engulfment assay with human RBCs used a secondary antibody against the opsonizing IgG, which allowed us to clearly see RBCs in contact with macrophages that are not internalized (FIG. 29C). The cells are also firmly attached to the macrophages because the culture dishes were rinsed after fixation and secondary antibody labeling. […] All of the RBCs in these samples are equally opsonized with IgG that binds Fc-receptors (FcR's) on macrophages, and so differences in measured adhesion implicate differences in the CD47—SIRPα interaction.

[5] = system: mouse J774A.1 macrophages; assay: In vitro phagocytosis assay: opsonized human RBCs engulfed by mouse J774A.1 macrophages; type: cell-based
Procedure: as §3, with “In vitro phagocytosis assay. […] For CD47 blocked RBCs, 5 μg/mL of mouse anti-human CD47 (B6H12; BD Biosciences) were added. Thereafter, RBCs were washed with PBS three times and stained with PKH26 dye (1:800 dilution in PBS; Sigma) for 1 hour at RT with shaking in the dark. RBCs were washed and resuspended in PBS. J774A.1 macrophages were plated for 24 hours in RPMI. For SIRPα blocked J774A.1 macrophages, the same peptide blocking procedure as described elsewhere herein was used with the addition of a positive control using 5 μg/mL rat anti-mouse SIRPα ([…]; BD Biosciences). […] CO2” for “CO2”

Row | Substance | effect on phagocytosis of opsonized WT and SIRPα KO B16 cells [1] | effect on phagocytosis of opsonized RBCs (words) (human THP-1 macrophages [2]; saturating / 50 μM peptide) | inhibition of monovalent nS-F-FAM binding to macrophages (THP-1 macrophages) | level of inhibition of CD47-Fc binding (SIRPα) | effect on phagocytosis of opsonized RBCs (words) (human THP-1 macrophages [2]; 20 nM peptide) | also measured
1 | CVTELFREGC (HELM PEPTIDE1{C.V.T.E.L.F.R.E.G.C.[am]}$PEPTIDE1,PEPTIDE1,1:R3-10:R3$$$V2.0; N-terminus assumed; SMILES CC(C)C[C@@H]1NC(=O)[C@H](CCC(=O)O)NC(=O)[C@H]([C@@H](C)O)NC(=O)[C@H](C(C)C)NC(=O)[C@@H](N)CSSC[C@@H](C(N)=O)NC(=O)CNC(=O)[C@H](CCC(=O)O)NC(=O)[C@H](CCCNC(=N)N)NC(=O)[C@H](Cc2ccccc2)NC1=O) [nS-F-Cyc, cyclic variant of nS-F] | Maximum levels of phagocytic macrophages | Maximum levels of phagocytic macrophages |  |  |  | increase of macrophage phagocytosis relative to nS-wt (human THP-1 macrophages [2]; saturating peptide): roughly 25%
2 | ((VTELFREG-PEG5)2-K)2-K [nS-F4] |  |  | more potent in inhibiting monovalent nS-F-fluor association with macrophages than bivalent nS-FF | as inhibitory as anti-CD47 | more potent in enhancing phagocytosis | increase of phagocytosis relative to opsonized and CD47 blocked K562 cells ([3]; saturating peptide): nearly doubled; also recorded: about two-fold; macrophages engulfing opsonized K562 cells at saturation ([3]; saturation): ~40%
3 | (VTELVREG-PEG5)2-K (VTELVREGKGERVLETV; bivalent, PEG5 linkers, lysine core; nS-VV; (8)..(9) 5x PEG linker between residues; (9)..(10) 5x PEG linker between residues) [bivalent nS-V] |  | activity profiles in phagocytosis assays that are similar to the monovalent nS-F | further decreased |  | successful in activating THP-1 to engulf opRBCs | 
4 | CVELTREGC (HELM PEPTIDE1{C.V.E.L.T.R.E.G.C.[am]}$PEPTIDE1,PEPTIDE1,1:R3-9:R3$$$V2.0; N-terminus assumed; SMILES CC(C)C[C@@H]1NC(=O)[C@H](CCC(=O)O)NC(=O)[C@H](C(C)C)NC(=O)[C@@H](N)CSSC[C@@H](C(N)=O)NC(=O)CNC(=O)[C@H](CCC(=O)O)NC(=O)[C@H](CCCNC(=N)N)NC(=O)[C@H]([C@@H](C)O)NC1=O) [nS-Cyc] | Maximum levels of phagocytic macrophages | greater effect in perturbing the CD47-SIRPα interaction compared to linear nS-wt; also recorded: slightly higher levels than opsonized and anti-CD47 blocked RBCs; also recorded: Maximum levels of phagocytic macrophages |  |  |  | residual adhesion of opsonized RBCs to macrophages (human THP-1 macrophages [4]): lowest amount of residual adhesion to macrophages; fold more active than the linear counterpart ([5]; mouse macrophages, opsonized RBCs): roughly 20 fold; effect on phagocytosis of opsonized RBCs (words) ([5]; saturating / 50 μM peptide): slightly higher levels than opsonized and anti-CD47 blocked RBCs
5 | (LETVEGTR-PEG5)2-K (LETVEGTRKRTGEVTEL; bivalent, PEG5 linkers, lysine core; nS-XX; (8)..(9) 5x PEG linker between residues; (9)..(10) 5x PEG linker between residues) [bivalent scrambled control] |  | unaffected; also recorded: do not affect baseline engulfment of opsonized RBCs; also recorded: do not have effects on phagocytosis |  | 0 |  | effect on phagocytosis of opsonized K562 cells [3]: unaffected; also recorded: only opsonization effect observed
